Read-outs that look alike come from different tables or passages of the source. Marks after values point to notes of the source that are not given here. One block for each compound: values may come before it.
What was measured:
[1] = target: human dopamine transporter (Homo sapiens, UniProt Q01959); experiment: DAT binding assay ([3H]-WIN 35,428, CHO-K1 membranes); settings: for Selectivity Ratio hDAT/hSERT: ratio of Ki values
Experimental: (§6) Ten-micromolar stock solutions of tested compounds were prepared in DMSO. […] Each compound was tested in a screening assay at final concentrations of 10 µM and 1 µM. Results were expressed as percent inhibition of radioligand binding. Reference compounds were tested in 8 concentrations from 10^−5 to 10^−12 M (final concentration).
Radioligand binding was performed using membranes from CHO-K1 cells stably transfected with the human dopamine transporter (PerkinElmer, Waltham, MA, USA). All assays were carried out in duplicates. […] The microplate was covered with sealing tape, mixed and incubated for 120 min at 4 °C. The reaction was terminated by rapid filtration through GF/C filter mate pre-soaked with 0.5% polyethyleneimine for 30 min. Ten rapid washes with 200 µL of 50 mM Tris buffer (4 °C, pH 7.4) were performed using the automated harvester system Harvester-96 MACH III FM (Tomtec, Hamden, CT, USA). […] Radioactivity was counted using a MicroBeta2 scintillation counter (PerkinElmer, Turku, Finland). Data were fitted to a one-site curve-fitting equation with Prism 5 (GraphPad Software), and Ki values were estimated using the Cheng–Prusoff equation.

α1-adrenoceptor = experiment: ADRA1 receptor binding assay ([3H]-prazosin, rat cortex); settings: read-out: Ki ± SEM α1
[2] = target: human norepinephrine transporter (Homo sapiens, UniProt P23975); experiment: NET binding assay ([3H]-nisoxetine, MDCK membranes); settings: for hNET screening procedure, displacement %: at 1 µM
Experimental: We performed radioligand binding assays using membranes from CHO-K1 cells stably transfected with human DAT and membranes from MDCK cells stably transfected with human NET. This was accomplished by assessing the displacement of [^3H]-WIN35,428 and [^3H]-nisoxetine from cloned human DAT and NET, respectively.
as §6
Radioligand binding was performed using membranes from MDCK cells stably transfected with the human norepinephrine transporter (PerkinElmer, Waltham, MA, USA). All assays were carried out in duplicates. Measures of 50 µL of working solution of the tested compounds, 50 µL of [^3H]-nisoxetine (final concentration 4 nM) and 150 µL of diluted membranes (3 µg protein per well) prepared in assay buffer (50 mM Tris-HCl, pH 7.4, 120 mM NaCl; 5 mM KCl) were transferred to a polypropylene 96-well microplate using the 96-well pipetting station Rainin Liquidator (MettlerToledo, Beverly, MA, USA). […] The microplate was covered with sealing tape, mixed and incubated for 60 min at 4 °C. The reaction was terminated by rapid filtration through GF/C filter mate pre-soaked with 0.5% polyethyleneimine for 30 min. Ten rapid washes with 200 µL of 50 mM Tris buffer (4 °C, pH 7.4) were performed using the automated harvester system Harvester-96 MACH III FM (Tomtec, Hamden, CT, USA). […] Radioactivity was counted using a MicroBeta2 scintillation counter (PerkinElmer, Turku, Finland). Data were fitted to a one-site curve-fitting equation with Prism 5 (GraphPad Software), and Ki values were estimated using the Cheng–Prusoff equation.

[3] = target: T1, human serotonin transporter (Homo sapiens, UniProt P31645); experiment: Serotonin transporter radioligand binding ([3H]-imipramine, HEK-293 membranes)
T1 construct: purchased PerkinElmer; host or cells: HEK-293
Experimental: (§1) Each compound was tested in 6 concentrations from 10–5 to 10–10 M (final concentration).
(§2) All assays were carried out in duplicates.

[4] = target: T1, human serotonin transporter; settings: previously described 1H-indole analogues; read-out: Ki ± SEM SERT; cited from earlier work
human 5-HT1A receptor [5] = target: T2, human 5-HT1A receptor (Homo sapiens, UniProt P08908); settings: previously described 1H-indole analogues; read-out: Ki ± SEM 5-HT1A; cited from earlier work
T2 construct: purchased PerkinElmer; host or cells: CHO-K1
T2 sequence (P08908 1-422): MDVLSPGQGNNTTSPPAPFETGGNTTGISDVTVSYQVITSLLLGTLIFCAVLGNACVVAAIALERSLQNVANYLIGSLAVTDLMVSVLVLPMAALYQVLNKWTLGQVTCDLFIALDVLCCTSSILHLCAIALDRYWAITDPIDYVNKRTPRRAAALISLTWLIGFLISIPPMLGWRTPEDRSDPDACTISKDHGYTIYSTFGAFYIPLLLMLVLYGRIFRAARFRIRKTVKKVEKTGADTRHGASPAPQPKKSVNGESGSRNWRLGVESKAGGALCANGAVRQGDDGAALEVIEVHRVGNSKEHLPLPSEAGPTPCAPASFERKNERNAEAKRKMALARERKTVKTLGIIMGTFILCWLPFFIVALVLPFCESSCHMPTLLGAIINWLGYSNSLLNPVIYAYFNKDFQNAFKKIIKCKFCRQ

human 5-HT1A receptor [6] = target: T2, human 5-HT1A receptor; experiment: 5-HT1A receptor radioligand binding ([3H]-8-OH-DPAT, CHO-K1 membranes); settings: displacement of [3H]-8-OH-DPAT, mean ± SEM of three experiments, NC = not converged
Experimental: as §1, §2

5-HT2A receptor = target: T3, 5-HT2A receptor (Rattus norvegicus, UniProt P14842); experiment: 5-HT2A binding assay ([3H]-ketanserin, rat cortex); settings: read-out: Ki ± SEM 5-HT2A
T3 construct: and for the native 5-HT2A receptor; from tissue; host or cells: rat cortex
Experimental: (§3) Specifically, we assessed the displacement of [^3H]-raclopride, [^3H]-LSD, and [^3H]-5-CT from the cloned human D2L, 5-HT6, and 5-HT7 receptor, respectively, stably expressed in HEK293 cells, and [^3H]-ketanserin from the 5-HT2A receptor from the rat cortex.
Tissue preparations (rat cortex) and competition binding experiments for 5-HT2A receptors were carried out according to a previously described, standard technique using 0.5 nM of [^3H]-ketanserin as the radioligand and 10 μM of methysergide to determine non-specific binding. Following 20 min of incubation, the samples containing receptor homogenates and the investigated compounds (7–9 concentrations run in triplicate) were rapidly filtered under vacuum through GF/B glass fibre filters; the filters were washed extensively with an ice-cold buffer using a Brandel harvester. Bound radioactivity was measured by scintillation counting using a liquid scintillation cocktail. The inhibition constants (Ki) were calculated using the Cheng–Prusoff equation. Results are expressed as the means of at least three separate experiments.

human 5-HT7b receptor = target: T4, human 5-HT7b receptor (Homo sapiens, UniProt P34969); experiment: 5-HT7 receptor binding ([3H]-5-CT, HEK293 cells); settings: cloned human receptor in HEK293, read-out: Ki ± SEM 5-TH7
T4 construct: expressed in transfected cells; host or cells: HEK293
Experimental: as §3
(§4) For membrane preparation, cells were subcultured in 10 cm-diameter dishes, grown to 90% confluence, washed twice with prewarmed to 37 °C phosphate buffered saline (PBS) and pelleted by centrifugation (200 g) in PBS containing 0.1 mM EDTA and 1 mM dithiothreitol. Prior to membrane preparation, pellets were stored at −80 °C.
(§5) Cell pellets were thawed and homogenised in 20 volumes of assay buffer using an Ultra Turrax tissue homogeniser and centrifuged twice at […] for 20 min at 4 °C, with incubation for 15 min at 37 °C in between. The composition of the assay buffers was as follows: for 5-HT6R, 50 mM Tris-HCl, 0.5 mM EDTA and 4 mM MgCl2; and for 5-HT7bR, 50 mM Tris-HCl, 4 mM MgCl2, 10 μM pargyline and 0.1% ascorbate. All assays were incubated in a total volume of 200 μL in 96-well microtitre plates for 1 h at 37 °C. The process of equilibration was terminated by rapid filtration through Unifilter plates with a 96-well cell harvester, and radioactivity retained on the filters was quantified on a Microbeta plate reader. For displacement studies, the assay samples contained radioligands such as 2 nM [^3H]-LSD (85.2 Ci/mmol for 5-HT6R) or 0.6 nM [^3H]-5-CT (39.2 Ci/mmol) for 5-HT7R. Non-specific binding was defined using 10 μM methiothepine in the 5-HT6R or 5-HT7R binding experiments, respectively. Each compound was tested in triplicate at 7–8 concentrations (10^−11–10^−4 M). The inhibition constants (Ki) were calculated using the Cheng–Prusoff equation. Membrane preparation and general assay procedures for cloned receptors were adjusted to a 96-microwell format based on protocols previously described by us.

human 5-HT6 receptor = target: T5, human 5-HT6 receptor (Homo sapiens, UniProt P50406); experiment: 5-HT6 receptor binding ([3H]-LSD, HEK293 cells); settings: cloned human receptor in HEK293, read-out: Ki ± SEM 5-HT6
T5 construct: expressed in transfected cells; host or cells: HEK293
Experimental: as §3, §4, §5

human D2 receptor = human D2 receptor (Homo sapiens, UniProt P14416); experiment: D2 receptor binding assay; settings: cloned human D2 receptor; read-out: Ki ± SEM D2
Experimental: as §3, §1, §2

[7] = displacement of [3H]-imipramine, HEK-293 membranes, mean ± SEM of three experiments, read-out: Ki ± SEM SERT

T5 sequence (P50406 whole entry): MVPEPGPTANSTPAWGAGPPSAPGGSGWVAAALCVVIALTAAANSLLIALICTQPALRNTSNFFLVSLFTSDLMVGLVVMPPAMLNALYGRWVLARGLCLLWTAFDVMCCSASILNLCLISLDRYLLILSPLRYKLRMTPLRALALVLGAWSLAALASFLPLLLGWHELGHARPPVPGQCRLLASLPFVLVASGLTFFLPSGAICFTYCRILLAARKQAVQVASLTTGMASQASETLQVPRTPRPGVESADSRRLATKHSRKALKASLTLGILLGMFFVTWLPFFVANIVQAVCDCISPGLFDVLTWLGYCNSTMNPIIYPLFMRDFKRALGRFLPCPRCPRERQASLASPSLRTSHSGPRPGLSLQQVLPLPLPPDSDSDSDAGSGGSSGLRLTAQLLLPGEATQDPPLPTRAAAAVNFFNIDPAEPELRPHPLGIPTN
Sequence of human norepinephrine transporter (P23975 whole entry): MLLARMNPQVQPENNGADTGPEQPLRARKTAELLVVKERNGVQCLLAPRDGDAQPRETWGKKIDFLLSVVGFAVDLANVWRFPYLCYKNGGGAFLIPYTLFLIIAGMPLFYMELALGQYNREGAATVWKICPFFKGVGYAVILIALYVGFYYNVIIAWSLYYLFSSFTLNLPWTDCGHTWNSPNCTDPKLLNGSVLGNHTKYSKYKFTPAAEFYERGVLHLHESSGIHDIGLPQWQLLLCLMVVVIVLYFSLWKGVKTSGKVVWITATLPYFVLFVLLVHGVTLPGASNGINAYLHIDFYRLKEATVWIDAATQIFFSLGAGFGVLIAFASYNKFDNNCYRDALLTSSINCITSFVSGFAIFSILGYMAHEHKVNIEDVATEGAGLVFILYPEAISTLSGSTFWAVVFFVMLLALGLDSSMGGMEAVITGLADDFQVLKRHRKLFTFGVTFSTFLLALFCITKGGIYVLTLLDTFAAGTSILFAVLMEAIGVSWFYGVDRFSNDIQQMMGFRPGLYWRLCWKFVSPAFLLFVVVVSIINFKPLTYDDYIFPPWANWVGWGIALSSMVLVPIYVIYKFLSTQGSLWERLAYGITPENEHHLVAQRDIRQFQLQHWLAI
Sequence of human D2 receptor (P14416 whole entry): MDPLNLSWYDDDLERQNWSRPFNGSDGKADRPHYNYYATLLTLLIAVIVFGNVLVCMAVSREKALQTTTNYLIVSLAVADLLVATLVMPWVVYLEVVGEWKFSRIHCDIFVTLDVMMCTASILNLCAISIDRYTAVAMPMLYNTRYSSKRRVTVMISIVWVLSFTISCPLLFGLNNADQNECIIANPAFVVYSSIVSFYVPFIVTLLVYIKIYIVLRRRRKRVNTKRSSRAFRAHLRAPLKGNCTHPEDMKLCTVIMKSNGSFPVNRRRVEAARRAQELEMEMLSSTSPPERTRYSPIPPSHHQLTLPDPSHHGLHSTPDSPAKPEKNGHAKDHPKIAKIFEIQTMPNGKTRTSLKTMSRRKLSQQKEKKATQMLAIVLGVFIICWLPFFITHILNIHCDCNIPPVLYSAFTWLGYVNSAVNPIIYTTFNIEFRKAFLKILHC
T3 sequence (P14842 whole entry): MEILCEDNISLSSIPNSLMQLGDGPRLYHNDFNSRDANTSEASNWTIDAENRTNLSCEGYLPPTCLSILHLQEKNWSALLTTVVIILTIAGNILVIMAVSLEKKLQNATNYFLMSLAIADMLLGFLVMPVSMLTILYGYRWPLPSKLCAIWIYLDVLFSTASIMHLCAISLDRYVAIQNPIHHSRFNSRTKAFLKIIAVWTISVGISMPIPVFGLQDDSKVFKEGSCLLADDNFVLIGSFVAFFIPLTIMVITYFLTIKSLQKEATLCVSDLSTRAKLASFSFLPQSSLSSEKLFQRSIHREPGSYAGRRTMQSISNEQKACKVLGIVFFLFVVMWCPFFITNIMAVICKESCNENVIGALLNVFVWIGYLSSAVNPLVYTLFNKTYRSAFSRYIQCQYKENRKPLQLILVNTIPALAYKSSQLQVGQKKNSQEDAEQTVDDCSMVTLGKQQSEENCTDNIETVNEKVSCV
T1 sequence (P31645 whole entry): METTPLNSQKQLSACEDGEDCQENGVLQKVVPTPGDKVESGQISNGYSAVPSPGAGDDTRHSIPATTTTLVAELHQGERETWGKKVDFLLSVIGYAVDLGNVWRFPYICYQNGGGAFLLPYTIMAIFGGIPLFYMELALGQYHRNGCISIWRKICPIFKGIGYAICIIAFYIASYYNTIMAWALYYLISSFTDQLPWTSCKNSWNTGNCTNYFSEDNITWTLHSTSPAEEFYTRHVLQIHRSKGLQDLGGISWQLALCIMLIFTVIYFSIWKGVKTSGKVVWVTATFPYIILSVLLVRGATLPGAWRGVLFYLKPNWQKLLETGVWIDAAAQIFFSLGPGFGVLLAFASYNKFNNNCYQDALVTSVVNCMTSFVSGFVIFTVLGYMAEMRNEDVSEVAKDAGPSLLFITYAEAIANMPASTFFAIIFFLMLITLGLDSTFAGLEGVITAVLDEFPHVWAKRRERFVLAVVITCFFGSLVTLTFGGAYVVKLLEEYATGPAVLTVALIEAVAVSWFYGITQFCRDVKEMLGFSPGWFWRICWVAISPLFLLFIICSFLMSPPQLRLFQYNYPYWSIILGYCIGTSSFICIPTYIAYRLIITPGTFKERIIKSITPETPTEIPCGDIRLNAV
Sequence of human dopamine transporter (Q01959 whole entry): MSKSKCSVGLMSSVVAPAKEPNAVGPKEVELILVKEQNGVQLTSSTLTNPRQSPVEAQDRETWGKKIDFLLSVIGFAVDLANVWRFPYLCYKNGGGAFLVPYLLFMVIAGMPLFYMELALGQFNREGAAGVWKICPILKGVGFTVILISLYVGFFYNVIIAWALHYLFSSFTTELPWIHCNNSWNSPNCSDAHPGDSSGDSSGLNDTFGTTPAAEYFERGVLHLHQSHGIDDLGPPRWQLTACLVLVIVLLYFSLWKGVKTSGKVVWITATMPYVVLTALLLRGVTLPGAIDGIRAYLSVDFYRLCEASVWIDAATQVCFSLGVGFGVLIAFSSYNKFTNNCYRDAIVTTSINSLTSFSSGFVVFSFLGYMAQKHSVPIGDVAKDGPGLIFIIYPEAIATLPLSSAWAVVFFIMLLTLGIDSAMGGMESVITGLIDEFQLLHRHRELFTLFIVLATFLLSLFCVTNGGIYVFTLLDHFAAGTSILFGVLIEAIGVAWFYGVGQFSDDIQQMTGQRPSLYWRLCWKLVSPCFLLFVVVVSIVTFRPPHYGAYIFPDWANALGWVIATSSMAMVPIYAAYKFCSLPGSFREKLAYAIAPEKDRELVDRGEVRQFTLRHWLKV
T4 sequence (P34969 1-432 limits assumed): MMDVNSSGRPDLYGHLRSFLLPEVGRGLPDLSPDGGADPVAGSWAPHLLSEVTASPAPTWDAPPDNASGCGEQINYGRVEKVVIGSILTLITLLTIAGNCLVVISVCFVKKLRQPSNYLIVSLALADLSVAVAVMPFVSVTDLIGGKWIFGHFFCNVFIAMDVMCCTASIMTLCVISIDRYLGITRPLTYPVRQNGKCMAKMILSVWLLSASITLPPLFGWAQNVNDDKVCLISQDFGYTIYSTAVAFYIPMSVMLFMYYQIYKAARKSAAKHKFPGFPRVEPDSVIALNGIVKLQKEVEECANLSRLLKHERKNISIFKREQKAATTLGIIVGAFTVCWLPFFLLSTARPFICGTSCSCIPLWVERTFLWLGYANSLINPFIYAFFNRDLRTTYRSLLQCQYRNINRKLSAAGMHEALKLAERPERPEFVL

Ki [1]: 335 ± 14.8 nM
Selectivity Ratio hDAT/hSERT [1]: 3.6
Ki (α1-adrenoceptor): 319 ± 10.2 nM
hNET screening procedure, displacement % [2]: 41% ^a
Ki [3, 7]: 92 ± 8 nM
SMILES: COc1ccc2[nH]cc(C3CC(=O)N(CCN4CC=C(c5c[nH]c6ncccc56)CC4)C3=O)c2c1 (stereo not drawn) [Compound 9, 1-(2-(4-(1H-Pyrrolo[2,3-b]pyridin-3-yl)-3,6-dihydropyridin-1(2H)-yl)ethyl)-3-(5-methoxy-1H-indol-3-yl)pyrrolidine-2,5-dione]

SMILES: O=C1CC(c2c[nH]c3ccccc23)C(=O)N1CCCN1CC=C(c2c[nH]c3ccccc23)CC1 (stereo not drawn) [Compound 14]
Ki [4]: 4 ± 0.1 nM
Ki (human 5-HT1A receptor [5]): 161 ± 17.5 nM

Ki (human 5-HT1A receptor [6]): 824 ± 23.2 nM
Ki [3, 7]: 58.4 ± 4 nM
SMILES: COc1ccc2[nH]cc(C3CC(=O)N(CCCCN4CC=C(c5c[nH]c6ncccc56)CC4)C3=O)c2c1 (stereo not drawn) [Compound 7, 1-(4-(4-(1H-Pyrrolo[2,3-b]pyridin-3-yl)-3,6-dihydropyridin-1(2H)-yl)butyl)-3-(5-methoxy-1H-indol-3-yl)pyrrolidine-2,5-dione]

Ki (human 5-HT1A receptor [6]): 128 ± 12 nM
Ki [3, 7]: 77.6 ± 2.5 nM
SMILES: O=C1CC(c2c[nH]c3ccc(F)cc23)C(=O)N1CCCCN1CC=C(c2c[nH]c3ncccc23)CC1 (stereo not drawn) [Compound 10, 1-(4-(4-(1H-Pyrrolo[2,3-b]pyridin-3-yl)-3,6-dihydropyridin-1(2H)-yl)butyl)-3-(5-fluoro-1H-indol-3-yl)pyrrolidine-2,5-dione]

SMILES: O=C1CC(c2c[nH]c3ccccc23)C(=O)N1CCN1CC=C(c2c[nH]c3ccccc23)CC1 (stereo not drawn) [Compound 15]
Ki [4]: 33.8 ± 3.2 nM
Ki (human 5-HT1A receptor [5]): 250 ± 6.8 nM

SMILES: COc1ccc2[nH]cc(C3CC(=O)N(CCCN4CC=C(c5c[nH]c6ncccc56)CC4)C3=O)c2c1 (stereo not drawn) [Compound 8, 1-(3-(4-(1H-Pyrrolo[2,3-b]pyridin-3-yl)-3,6-dihydropyridin-1(2H)-yl)propyl)-3-(5-methoxy-1H-indol-3-yl)pyrrolidine-2,5-dione]
Ki (5-HT2A receptor): 727 ± 43 nM
Ki [1]: 663 ± 15 nM
Ki (α1-adrenoceptor): 265 ± 6.5 nM
hNET screening procedure, displacement % [2]: 43% ^a
Ki [3, 7]: 23 ± 2.8 nM
Ki (human 5-HT7b receptor): 1530 ± 76 nM
Ki (human 5-HT6 receptor): 2970 ± 138 nM

SMILES: COc1ccc2[nH]cc(C3CC(=O)N(CCN4CC=C(c5c[nH]c6ccccc56)CC4)C3=O)c2c1 (stereo not drawn) [Compound 18]
Ki [4]: 14.7 ± 1.5 nM
Ki (human 5-HT1A receptor [5]): 348 ± 12.1 nM

Ki (5-HT2A receptor): 237 ± 17 nM
Ki (human D2 receptor): 56 ± 7 nM
Ki (human 5-HT7b receptor): 30 ± 4 nM
Ki (human 5-HT6 receptor): 257 ± 17 nM
SMILES: O=C1CC(c2c[nH]c3ccc(F)cc23)C(=O)N1CCCN1CC=C(c2c[nH]c3ccccc23)CC1 (stereo not drawn) [Compound 20]
Ki [4]: 1.5 ± 0.2 nM
Ki (human 5-HT1A receptor [5]): 190 ± 8.5 nM

SMILES: O=C1CC(c2c[nH]c3ccccc23)C(=O)N1CCCN1CC=C(c2c[nH]c3ncccc23)CC1 (stereo not drawn) [Compound 5, 1-(3-(4-(1H-Pyrrolo[2,3-b]pyridin-3-yl)-3,6-dihydropyridin-1(2H)-yl)propyl)-3-(1H-indol-3-yl)pyrrolidine-2,5-dione]
Ki (human 5-HT1A receptor [6]): 2450 ± 24 nM
Ki [3]: 57.1 ± 3.2 nM

SMILES: COc1ccc2[nH]cc(C3CC(=O)N(CCCN4CC=C(c5c[nH]c6ccccc56)CC4)C3=O)c2c1 (stereo not drawn) [Compound 17]
Ki [4]: 782 ± 54 nM
Ki (human 5-HT1A receptor [5]): 221 ± 11.5 nM

SMILES: O=C1CC(c2c[nH]c3ccc(F)cc23)C(=O)N1CCCN1CC=C(c2c[nH]c3ncccc23)CC1 (stereo not drawn) [Compound 11, 1-(3-(4-(1H-Pyrrolo[2,3-b]pyridin-3-yl)-3,6-dihydropyridin-1(2H)-yl)propyl)-3-(5-fluoro-1H-indol-3-yl)pyrrolidine-2,5-dione]
Ki (5-HT2A receptor): 1160 ± 96 nM
Ki [1]: 288 ± 25.2 nM
Selectivity Ratio hDAT/hSERT [1]: 31.3
Ki (human D2 receptor): 51 ± 6 nM
Ki (human 5-HT1A receptor [6]): 128 nM
Ki [3, 7]: 9.2 ± 0.6 nM
Ki (human 5-HT7b receptor): 1130 ± 89 nM
Ki (human 5-HT6 receptor): 1290 ± 147 nM

SMILES: COc1ccc2[nH]cc(C3CC(=O)N(CCCCN4CC=C(c5c[nH]c6ccccc56)CC4)C3=O)c2c1 (stereo not drawn) [Compound 16]
Ki [4]: 2.6 ± 0.3 nM
Ki (human 5-HT1A receptor [5]): 30.4 ± 1.8 nM

SMILES: O=C1CC(c2c[nH]c3ccc(F)cc23)C(=O)N1CCN1CC=C(c2c[nH]c3ncccc23)CC1 (stereo not drawn) [Compound 12, 1-(2-(4-(1H-Pyrrolo[2,3-b]pyridin-3-yl)-3,6-dihydropyridin-1(2H)-yl)ethyl)-3-(5-fluoro-1H-indol-3-yl)pyrrolidine-2,5-dione]
Ki [1]: 229 ± 21.4 nM
Selectivity Ratio hDAT/hSERT [1]: 0.9
Ki (α1-adrenoceptor): 456 ± 6 nM
hNET screening procedure, displacement % [2]: 42% ^a
Ki [3, 7]: 252 ± 24 nM

Ki (α1-adrenoceptor): 11 ± 0.7 nM
SMILES: Cc1ccc(N(CC2=NCCN2)c2cccc(O)c2)cc1 [phentolamine, reference compound]

SMILES: O=C1CC(c2c[nH]c3ccccc23)C(=O)N1CCN1CC=C(c2c[nH]c3ncccc23)CC1 (stereo not drawn) [Compound 6, 1-(2-(4-(1H-Pyrrolo[2,3-b]pyridin-3-yl)-3,6-dihydropyridin-1(2H)-yl)ethyl)-3-(1H-indol-3-yl)pyrrolidine-2,5-dione]
Ki [1]: 916 ± 40.5 nM
Selectivity Ratio hDAT/hSERT [1]: 3.7
Ki (α1-adrenoceptor): 367 ± 55.2 nM
hNET screening procedure, displacement % [2]: 37% ^a
Ki [3, 7]: 245 ± 18 nM

SMILES: O=C1CC(c2c[nH]c3ccccc23)C(=O)N1CCCCN1CC=C(c2c[nH]c3ccccc23)CC1 (stereo not drawn) [Compound 13]
Ki [4]: 11.3 ± 0.6 nM
Ki (human 5-HT1A receptor [5]): 12.5 ± 1.7 nM

SMILES: O=C1CC(c2c[nH]c3ccccc23)C(=O)N1CCCCN1CC=C(c2c[nH]c3ncccc23)CC1 (stereo not drawn) [Compound 4, 1-(4-(4-(1H-Pyrrolo[2,3-b]pyridin-3-yl)-3,6-dihydropyridin-1(2H)-yl)butyl)-3-(1H-indol-3-yl)pyrrolidine-2,5-dione]
Ki (5-HT2A receptor): 1400 ± 71 nM
Ki (human D2 receptor): 78 ± 7 nM
Ki (human 5-HT1A receptor [6]): 660 ± 60.2 nM
Ki (α1-adrenoceptor): 87 ± 2 nM
Ki [2]: 167 ± 13.8 nM
Selectivity Ratio hNET/hSERT ([2]; ratio of Ki values): 3.5
Ki [3, 7]: 47 ± 5 nM
Ki (human 5-HT7b receptor): 1420 ± 172 nM
Ki (human 5-HT6 receptor): 1690 ± 186 nM

SMILES: O=C1CC(c2c[nH]c3ccc(F)cc23)C(=O)N1CCCCN1CC=C(c2c[nH]c3ccccc23)CC1 (stereo not drawn) [Compound 19]
Ki [4]: 33.3 ± 2.9 nM
Ki (human 5-HT1A receptor [5]): 48.2 ± 2.9 nM

Source: publication PMC11508649 (International Journal of Molecular Sciences, 2024)
